In experiment [1] the target is T1, human SCTR (Homo sapiens, UniProt P47872). The experiment in a line: agonist-induced β-arr2-GFP translocation. The class given is cell-based. On the set-up: expressed in transfected cells; host or cells: U2OS (human osteosarcoma), stably co-transfected with β-arrestin2-GFP. To be noted: for β-arrestin2-GFP agonism efficacy: Supplementary Tables S1 and S2, % of wild-type secretin, decimal comma, '-' not detectable (Figure 4). From the text: (§1) U2OS-SCTR/β-arr2-GFP: human osteosarcoma cell line U2OS (purchased from ATCC/LGC Standards, Wesel, Germany) were stably transfected with plasmids encoding SCTR (Homo sapiens) and the fusion protein β-arrestin2-green fluorescent protein (GFP) (Rattus norvegicus-Aequorea victoria) (β-arr2-GFP).
T1 sequence (P47872 23-440): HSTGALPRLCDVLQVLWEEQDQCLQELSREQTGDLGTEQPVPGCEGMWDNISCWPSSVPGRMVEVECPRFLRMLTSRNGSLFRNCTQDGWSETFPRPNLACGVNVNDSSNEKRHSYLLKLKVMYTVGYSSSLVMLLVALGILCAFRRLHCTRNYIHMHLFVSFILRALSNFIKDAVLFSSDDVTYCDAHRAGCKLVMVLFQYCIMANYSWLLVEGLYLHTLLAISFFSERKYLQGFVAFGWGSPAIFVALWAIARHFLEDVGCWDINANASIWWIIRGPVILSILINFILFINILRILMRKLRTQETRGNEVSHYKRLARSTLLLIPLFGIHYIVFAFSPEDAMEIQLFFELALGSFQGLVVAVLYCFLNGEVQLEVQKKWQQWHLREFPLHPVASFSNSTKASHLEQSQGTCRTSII
To evaluate reactivity of human SCTR exposed to different ligand variants, intracellular translocation of a fusion protein of β-arrestin2 and green fluorescent protein was utilized. For evaluation of activation, receptor-mediated recruitment of cytoplasmic β-arr2-GFP was monitored through its translocation into condensed intracellular vesicles. The extent of translocation events was quantified by determining the increasing granularization of the intracellular fluorescence utilizing an automated high-throughput microscope in combination with computational algorithms to estimate potency (EC50) and efficacy, thus characterizing ligand-SCTR interaction. U2OS-SCTR/β-arr2-GFP cells were seeded in 96-well cell culture plates to 60–80% confluence. On the following day, preceding stimulation, cells were incubated for one hour in serum-free medium. Ligand variants were applied as serial dilutions in assay buffer C1. After preincubation, supernatant was discarded by tapping plates overhead repeatedly. For stimulation, 50 µL of ligand dilution was applied per well in duplicates and incubated for 20 min at 37 °C. Successively, cells were fixed by applying 4% buffered formaldehyde (Herbeta Arzneimittel, Berlin, Germany) for 10 min at room temperature and consecutively permeabilized for 10 min at room temperature with 0.1% TritonX-100 in PBS, containing DAPI (4′,6-Diamidin-2-phenylindol, SigmaAldrich, Deisenhofen, Germany, 1 µg/mL) to counterstain nuclei. Microscopic images were recorded by an IN Cell Analyzer 1000 (GE Healthcare, Reading, UK) with 20× magnification at 5 frames per well in a 96-well format. Image processing was performed with IN Cell Investigator software (GE Healthcare, Reading, UK), applying the provided granularity algorithm. The output of the analysis was indicated as vesicle area/cell and was utilized for calculation of concentration–response curves. Parameters derived from curve fitting included the concentration of half-maximal activity (EC50), and intrinsic activity. Intrinsic activity was normalized defining reaction to non-modified wild type secretin as the 100% curve maximum value.

Experiment [2] has as its target T1, human SCTR. The experiment in a line: β-arr2-GFP translocation assay run in antagonist mode. On IC50, inhibition of β-arr2-GFP translocation (Table 3): peptide 5 min at 37 °C. The class given is cell-based. Set-up: expressed in transfected cells; host or cells: U2OS (human osteosarcoma), stably co-transfected with β-arrestin2-GFP.
Description: as §1
For analysis of antagonistic effects on SCTR, a slightly modified protocol of the β-arr2-GFP translocation was used. […] For analysis, cells were terminally fixed and permeabilized as previously described. The additional monitoring of IDCC fluorescence in the near-infrared channel (667 nm) provided another measure for receptor binding and activation.

The mark [3] stands for this setting: read-out: IC50, inhibition of β-arr2-GFP translocation (Table 3).

The source of these data is PMC8944975, “Secretin Receptor as a Target in Gastrointestinal Cancer: Expression Analysis and Ligand Development” (Biomedicines, 2022).

Read-outs that look alike come from different tables or passages of the source.

Take `CC(C)C[C@H](NC(=O)CNC(=O)[C@H](CCC(N)=O)NC(=O)[C@H](CC(C)C)NC(=O)[C@H](CC(C)C)NC(=O)[C@H](CCCNC(=N)N)NC(=O)[C@H](CCC(N)=O)NC(=O)[C@H](CC(C)C)NC(=O)[C@H](CCCNC(=N)N)NC(=O)[C@H](C)NC(=O)CNC(=O)[C@H](CCC(=O)O)NC(=O)[C@H](CCCNC(=N)N)NC(=O)[C@H](CC(C)C)NC(=O)[C@H](CCCNC(=N)N)NC(=O)[C@H](CO)NC(=O)[C@H](CC(C)C)NC(=O)[C@H](CCC(=O)O)NC(=O)[C@H](CO)NC(=O)[C@@H](NC(=O)[C@H](Cc1ccccc1)NC(=O)[C@@H](NC(=O)CNC(=O)[C@H](CC(=O)O)NC(=O)[C@@H](CO)NC(=O)[C@@H](N)Cc1c[nH]cn1)[C@@H](C)O)[C@@H](C)O)C(=O)N[C@H](C(=O)O)C(C)C` [Peptide 87]: the β-arrestin2-GFP agonism efficacy in experiment [1] was 91,57 % Sec.
Consider `CC(C)C[C@H](NC(=O)CNC(=O)[C@H](CCC(N)=O)NC(=O)[C@H](CC(C)C)NC(=O)[C@H](CC(C)C)NC(=O)[C@H](CCCNC(=N)N)NC(=O)[C@H](CCC(N)=O)NC(=O)[C@H](CC(C)C)NC(=O)[C@H](CCCNC(=N)N)NC(=O)[C@H](C)NC(=O)CNC(=O)[C@H](CCC(=O)O)NC(=O)[C@H](CCCNC(=N)N)NC(=O)[C@H](CC(C)C)NC(=O)[C@H](CCCNC(=N)N)NC(=O)[C@H](CO)NC(=O)[C@H](CC(C)C)NC(=O)[C@H](CCC(=O)O)NC(=O)[C@H](CO)NC(=O)[C@@H](NC(=O)[C@H](Cc1ccccc1)NC(=O)[C@@H](NC(=O)CNC(=O)[C@@H](CC(=O)O)NC(=O)[C@H](CO)NC(=O)[C@@H](N)Cc1c[nH]cn1)[C@@H](C)O)[C@@H](C)O)C(=O)N[C@H](C(=O)O)C(C)C` [Peptide 88], for which the β-arrestin2-GFP agonism efficacy in experiment [1] is reported as 89,07 % Sec.
On the same count and under the same terms, then `CC(C)C[C@H](NC(=O)CNC(=O)[C@H](CCC(N)=O)NC(=O)[C@H](CC(C)C)NC(=O)[C@H](CC(C)C)NC(=O)[C@H](CCCNC(=N)N)NC(=O)[C@H](CCC(N)=O)NC(=O)[C@H](CC(C)C)NC(=O)[C@H](CCCNC(=N)N)NC(=O)[C@H](C)NC(=O)CNC(=O)[C@H](CCC(=O)O)NC(=O)[C@H](CCCNC(=N)N)NC(=O)[C@H](CC(C)C)NC(=O)[C@H](CCCNC(=N)N)NC(=O)[C@H](CO)NC(=O)[C@H](CC(C)C)NC(=O)[C@H](CCC(=O)O)NC(=O)[C@H](CO)NC(=O)[C@@H](NC(=O)[C@H](Cc1ccccc1)NC(=O)[C@H](NC(=O)CNC(=O)[C@H](CC(=O)O)NC(=O)[C@H](CO)NC(=O)[C@@H](N)Cc1c[nH]cn1)[C@H](C)O)[C@@H](C)O)C(=O)N[C@H](C(=O)O)C(C)C` [Peptide 89], with 102,97 % Sec.
For the compound `CC(C)C[C@H](NC(=O)CNC(=O)[C@H](CCC(N)=O)NC(=O)[C@H](CC(C)C)NC(=O)[C@H](CC(C)C)NC(=O)[C@H](CCCNC(=N)N)NC(=O)[C@H](CCC(N)=O)NC(=O)[C@H](CC(C)C)NC(=O)[C@H](CCCNC(=N)N)NC(=O)[C@H](C)NC(=O)CNC(=O)[C@H](CCC(=O)O)NC(=O)[C@H](CCCNC(=N)N)NC(=O)[C@H](CC(C)C)NC(=O)[C@H](CCCNC(=N)N)NC(=O)[C@H](CO)NC(=O)[C@H](CC(C)C)NC(=O)[C@@H](CCC(=O)O)NC(=O)[C@H](CO)NC(=O)[C@@H](NC(=O)[C@H](Cc1ccccc1)NC(=O)[C@@H](NC(=O)CNC(=O)[C@H](CC(=O)O)NC(=O)[C@H](CO)NC(=O)[C@@H](N)Cc1c[nH]cn1)[C@@H](C)O)[C@@H](C)O)C(=O)N[C@H](C(=O)O)C(C)C` [Peptide 93], the β-arrestin2-GFP agonism efficacy in experiment [1] is 100,40 % Sec.
For the compound `CC(C)C[C@H](NC(=O)CNC(=O)[C@H](CCC(N)=O)NC(=O)[C@H](CC(C)C)NC(=O)[C@H](CC(C)C)NC(=O)[C@H](CCCNC(=N)N)NC(=O)[C@H](CCC(N)=O)NC(=O)[C@H](CC(C)C)NC(=O)[C@H](CCCNC(=N)N)NC(=O)[C@H](C)NC(=O)CNC(=O)[C@H](CCC(=O)O)NC(=O)[C@H](CCCNC(=N)N)NC(=O)[C@H](CC(C)C)NC(=O)[C@H](CCCNC(=N)N)NC(=O)[C@H](CO)NC(=O)[C@@H](CC(C)C)NC(=O)[C@H](CCC(=O)O)NC(=O)[C@H](CO)NC(=O)[C@@H](NC(=O)[C@H](Cc1ccccc1)NC(=O)[C@@H](NC(=O)CNC(=O)[C@H](CC(=O)O)NC(=O)[C@H](CO)NC(=O)[C@@H](N)Cc1c[nH]cn1)[C@@H](C)O)[C@@H](C)O)C(=O)N[C@H](C(=O)O)C(C)C` [Peptide 94], in experiment [1], the β-arrestin2-GFP agonism efficacy is recorded as 94,17 % Sec.
Same read-out and setting: under `CC(C)C[C@H](NC(=O)[C@H](CCCNC(=N)N)NC(=O)[C@H](C)NC(=O)CNC(=O)[C@H](CCC(=O)O)NC(=O)[C@H](CCCNC(=N)N)NC(=O)[C@H](CC(C)C)NC(=O)[C@H](CCCNC(=N)N)NC(=O)[C@H](CO)NC(=O)[C@H](CC(C)C)NC(=O)[C@H](CCC(=O)O)NC(=O)[C@H](CO)NC(=O)[C@@H](NC(=O)[C@H](Cc1ccccc1)NC(=O)[C@@H](NC(=O)CNC(=O)[C@H](CC(=O)O)NC(=O)[C@H](CO)NC(=O)[C@@H](N)Cc1c[nH]cn1)[C@@H](C)O)[C@@H](C)O)C(=O)N[C@@H](CCC(N)=O)C(=O)N[C@@H](CCCNC(=N)N)C(=O)N[C@@H](CC(C)C)C(=O)N[C@@H](CC(C)C)C(=O)N[C@@H](CCC(N)=O)C(=O)NCC(=O)N[C@H](CC(C)C)C(=O)N[C@H](C(=O)O)C(C)C` [Peptide 95] stands 101,90 % Sec.
Take `CC(C)C[C@H](NC(=O)CNC(=O)[C@H](CCC(N)=O)NC(=O)[C@H](CC(C)C)NC(=O)[C@H](CC(C)C)NC(=O)[C@H](CCCNC(=N)N)NC(=O)[C@H](CCC(N)=O)NC(=O)[C@H](CC(C)C)NC(=O)[C@H](CCCNC(=N)N)NC(=O)[C@H](C)NC(=O)CNC(=O)[C@H](CCC(=O)O)NC(=O)[C@H](CCCNC(=N)N)NC(=O)[C@H](CC(C)C)NC(=O)[C@H](CCCNC(=N)N)NC(=O)[C@H](CO)NC(=O)[C@H](CC(C)C)NC(=O)[C@H](CCC(=O)O)NC(=O)[C@H](CO)NC(=O)[C@@H](NC(=O)[C@@H](N)Cc1ccccc1)[C@@H](C)O)C(=O)N[C@H](C(=O)O)C(C)C` [Peptide 119]: the half-maximal inhibitory concentration (IC50) in experiment [2] (read-out: IC50, inhibition of β-arr2-GFP translocation (Table 2)) was found to be 2340 ± 366 nM.
`CC(C)C[C@H](NC(=O)CNC(=O)[C@H](CCC(N)=O)NC(=O)[C@H](CC(C)C)NC(=O)[C@H](CC(C)C)NC(=O)[C@H](CCCNC(=N)N)NC(=O)[C@H](CCC(N)=O)NC(=O)[C@H](CC(C)C)NC(=O)[C@H](CCCNC(=N)N)NC(=O)[C@H](C)NC(=O)CNC(=O)[C@H](CCC(=O)O)NC(=O)[C@H](CCCNC(=N)N)NC(=O)[C@H](CC(C)C)NC(=O)[C@H](CCCNC(=N)N)NC(=O)[C@H](CO)NC(=O)[C@H](CC(C)C)NC(=O)[C@H](CCC(=O)O)NC(=O)[C@H](CO)NC(=O)[C@@H](NC(=O)[C@H](Cc1ccccc1)NC(=O)[C@@H](N)CCCNC(=N)N)[C@@H](C)O)C(=O)N[C@H](C(=O)O)C(C)C` [Peptide 124]: the concentration for half-maximal inhibition (IC50) in experiment [2] (setting [3]) came to 924 ± 237 nM.
The same measure, in the same setting: under `CC(C)C[C@H](NC(=O)CNC(=O)[C@H](CCC(N)=O)NC(=O)[C@H](CC(C)C)NC(=O)[C@H](CC(C)C)NC(=O)[C@H](CCCNC(=N)N)NC(=O)[C@H](CCC(N)=O)NC(=O)[C@H](CC(C)C)NC(=O)[C@H](CCCNC(=N)N)NC(=O)[C@H](C)NC(=O)CNC(=O)[C@H](CCC(=O)O)NC(=O)[C@H](CCCNC(=N)N)NC(=O)[C@H](CC(C)C)NC(=O)[C@H](CCCNC(=N)N)NC(=O)[C@H](CO)NC(=O)[C@H](CC(C)C)NC(=O)[C@H](CCC(=O)O)NC(=O)[C@H](CO)NC(=O)[C@@H](NC(=O)[C@H](Cc1ccccc1)NC(=O)[C@H](N)CCCNC(=N)N)[C@@H](C)O)C(=O)N[C@H](C(=O)O)C(C)C` [Peptide 125] stands 1360 ± 322 nM.
With “GLP-2: structurally related glucagon-like peptide 2 [reference compound]”, the “SCTR activation (agonism) in the β-arr2-GFP translocation assay, in words” value in experiment [1] (U2OS-SCTR/β-arr2-GFP cells) was “no SCTR activation”.
On to “HSDGTFTsELSRLREGARLQRLLQGLV [Peptide 92, D-amino acid substitution variant of human secretin]”, for which the β-arrestin2-GFP agonism efficacy in experiment [1] was 90,37 % Sec.
Regarding “HSDGTFtSELSRLREGARLQRLLQGLV [Peptide 91, D-amino acid substitution variant of human secretin]”, the β-arrestin2-GFP agonism efficacy in experiment [1] is reported as 98,33 % Sec.
